# Patent US9485983B2, “Use of connexin channel inhibitors to protect grafts” (Universiteit Gent, priority 2012, dated 2016)
# Entries after “also recorded” stand apart in the source; their conditions may differ.
# Experiments:
# Assay type in all cases: cell-based
# [1] = tested on: C6 glioma cells stably transfected with Cx43; assay: TUNEL control experiment with staurosporine; settings: 2 μM, 6 hours
# [2] = tested on: ECs and SMCs of femoral arteries; assay: TUNEL apoptosis assay on cryopreserved/thawed human femoral arteries; settings: for effect on number of TUNEL-positive cells (in words) / reduction of TUNEL-positive cell death counts (fraction): femoral arteries; for Protection relative to total number of cells (%) / Protection relative to total number of dead cells (%): Arteries, Gap27 200 μM; for reduction of TUNEL-positive cell death counts (fraction): 200 μM during cryopreservation, thawing and DMSO washout
# Text: (§1) Tissue samples of human femoral artery and saphenous vein were obtained from deceased donors (age: 45±1.7 years) according to a protocol that was approved by the ethical committee of the University Hospital Ghent, Belgium. […] Exclusion criteria were: presence of ulcers, calcific atheromas, rupture of intima or media, traction lesions due to prelevation in arteries; signs of phlebitis, atheromatosis, parietal abnormalities, or lesions of intima in veins. The vessels were placed in HBSS-HEPES and prior to cryopreservation, DMSO (15%) was added. […] Grafts were cryopreserved at 1° C./minute in a −80° C. freezer and, after two weeks, stored for at least another two weeks in a liquid nitrogen container (−196° C.).
# (§2) For vessel analysis and cell death studies, tissues were thawed in a 37° C. water bath and kept on ice before the next steps. DMSO was then progressively washed out by a stepwise reduction of the DMSO concentration in the HBSS-HEPES solution. To that purpose, the blood vessels remained for 4 minutes in HBSS-HEPES solution with, respectively, 10%, 5%, 2.5% and 0% DMSO. In Gap27-treated vessels, the peptide (200 μM) was present during DMSO washout.
# (§3) After DMSO washout, vessels were embedded in paraffin. To this purpose, blood vessels were transferred to a neutral buffered 4% formalin solution for fixation during 24 hours and were then embedded in paraffin. Paraffin-embedded vessel specimens were cut into […] serial sections along a transverse plane and were then stained with hematoxylin and eosin for general inspection, immunostained for connexins to establish the expression of various connexin types in the blood vessels or stained for cell death (apoptosis) making use of in situ terminal TdT-mediated dUTP nick end-labeling (TUNEL) with the In Situ Cell Death Detection Kit (Roche, Vilvoorde, Belgium). After any of these staining procedures, images were taken on a Nikon TE300 inverted microscope using a ×10 or ×20 objective and equipped with a Nikon DS-Ri1 cooled color CCD camera (Nikon Belux, Brussels, Belgium).
# (§4) Embedded artery or vein sections were deparaffinized, rehydrated through graded alcohol, and permeabilized with 0.1% TRITON® X-100 at room temperature (8 minutes incubation). Slides were rinsed twice in a phosphate-buffered saline (PBS). Apoptosis was detected through in situ terminal deoxynucleotidyl transferase (TdT)-mediated deoxyuridine triphosphate (dUTP) nick end-labeling (TUNEL), using the In Situ Cell Death Detection Kit (Roche, Vilvoorde, Belgium). Slides were incubated with the TUNEL reaction mixture containing TdT and fluorescein-dUTP for 1 hour at 37° C.; thereafter, they were rinsed three times in PBS and mounted as described for immunostaining. […] TUNEL-stained blood vessel tissue sections were examined by epifluorescence microscopy as described for immunostaining. Four areas from each slide were examined and five slides per blood vessel were analyzed. The number of TUNEL-positive cells is given as a percentage of the total number of cells quantified from DAPI-positive counts.
# [3] = tested on: ECs and SMCs of saphenous veins; assay: TUNEL apoptosis assay on cryopreserved/thawed human saphenous veins; settings: for effect on number of TUNEL-positive cells (in words) / reduction of TUNEL-positive cell death counts (fraction): saphenous veins; for Protection relative to total number of cells (%) / Protection relative to total number of dead cells (%): Veins, Gap27 200 μM; for reduction of TUNEL-positive cell death counts (fraction): 200 μM during cryopreservation, thawing and DMSO washout
# Text: as §1, §2, §3, §4
# [4] = tested on: bovine cumulus-oocyte complexes (COCs); assay: TUNEL cell death assay on COCs after vitrification/thawing
# Experimental: Bovine cumulus-oocyte complexes (COCs) were aspirated from ovaries collected at a local slaughterhouse. Immature COCs were recovered from the follicular fluid, washed two times in HEPES-TALP (see below under the heading “Pharmacological agents and solutions” of Materials and Methods), and matured for 22 hours in groups of 60 in 500 mL of modified bicarbonate-buffered TCM199 (Gibco BRL, Life Technologies) supplemented with 20% heat-inactivated fetal calf serum (FCS; Sigma-Aldrich) at 38.5° C. in a humidified 5% CO2 incubator. Vitrification was performed in two steps: an equilibration (EQ) and a vitrification step (VS). Equilibration solution was composed of M199/Hanks/HEPES supplemented with 20% fetal calf serum (FCS)+7.5% ethylene glycol+7.5% DMSO. The vitrification solution contained: M199/Hanks/HEPES supplemented with 20% FCS+15% ethylene glycol, 15% DMSO and 0.5 M sucrose. The COCs were washed by transferring them sequentially in three drops of 100 μl EQ solution (3 minutes residence in the first two drops and 6 minutes in the last drop) and then placed stepwise in five 100 μl drops VS solution (5 seconds in each drop except for the fifth that lasted 10 seconds). The connexin channel inhibitor Gap27 was added to the fifth drop of VS solution at a final concentration of 200 μM (the Gap27 sequence is given below under the heading “Pharmacological agents and solutions” of Materials and Methods). The control condition consisted of a drop solution without any added Gap27. COCs were placed in a manufactured cryotop and transferred immediately to liquid nitrogen (−196° C.).
# After 24 hours' storage in liquid nitrogen, the COCs were thawed by transferring them to a warming solution at 37° C. composed of M199/Hanks/HEPES+20% FCS+1.25 M sucrose for 1 minute. This was followed by a three-step wash-out of the hyperosmolar sucrose (reduced from 1.25 M to 0.62, 0.31 and 0 M, respectively; duration of each wash was 3 minutes, 5 minutes and 5 minutes, respectively). In the Gap27 treatment condition, the peptide concentration was gradually diluted over these three washing steps, halving its concentration with each transfer step (reduced from 200 μM in cryopreservation solution to 100, 50 and 0 μM, respectively). In the text that follows, “thawing” denotes the combination of warming and wash out of the hyperosmolarity.
# COCs were fixed in neutral buffered 4% formalin solution after thawing. Fixed COCs were permeabilized with 0.1% TRITON® X-100 at room temperature (8-minute incubation). […] Cell death was detected by in situ terminal deoxynucleotidyl transferase (TdT)-mediated deoxyuridine triphosphate (dUTP) nick end-labeling (TUNEL), using a commercial In Situ Cell Death Detection Kit (Roche, Vilvoorde, Belgium). […]
# bovine oocytes [5] = assay: Fertilization rate of vitrified/thawed COCs; settings: COCs vitrified/thawed in the presence of Gap27
# Experimental: All procedures used were in accordance with the guidance principals for care and use of laboratory animals of the Laboratory Animal Ethical Commission of Ghent University. Bovine cumulus-oocyte complexes (COCs) were aspirated from ovaries collected at a local slaughterhouse. Immature COCs were recovered from the follicular fluid, washed two times in HEPES-TALP (see below under the heading “Pharmacological agents and solutions” of Materials and Methods), and matured for 22 hours in groups of 60 in […] of modified bicarbonate-buffered TCM199 (Gibco BRL, Life Technologies) supplemented with 20% heat-inactivated fetal calf serum (FCS; Sigma-Aldrich) at 38.5° C. in a humidified 5% CO2 incubator. Vitrification was performed in two steps: an equilibration (EQ) and a vitrification step (VS). Equilibration solution was composed of M199/Hanks/HEPES supplemented with 20% fetal calf serum (FCS)+7.5% ethylene glycol+7.5% DMSO. The vitrification solution contained: M199/Hanks/HEPES supplemented with 20% FCS+15% ethylene glycol, 15% DMSO and 0.5 M sucrose. The COCs were washed by transferring them sequentially in three drops of 100 μl EQ solution (3 minutes residence in the first two drops and 6 minutes in the last drop) and then placed stepwise in five 100 μl drops VS solution (5 seconds in each drop except for the fifth that lasted 10 seconds). […]
# bovine oocytes [6] = assay: Cleavage rate of vitrified/thawed COCs; settings: Gap27-treated vitrified/thawed COCs; after 48 hours in culture
# Experimental: All procedures used were in accordance with the guidance principals for care and use of laboratory animals of the Laboratory Animal Ethical Commission of Ghent University. Bovine cumulus-oocyte complexes (COCs) were aspirated from ovaries collected at a local slaughterhouse. Immature COCs were recovered from the follicular fluid, washed two times in HEPES-TALP (see below under the heading “Pharmacological agents and solutions” of Materials and Methods), and matured for 22 hours in groups of 60 in […] of modified bicarbonate-buffered TCM199 (Gibco BRL, Life Technologies) supplemented with 20% heat-inactivated fetal calf serum (FCS; Sigma-Aldrich) at 38.5° C. in a humidified 5% CO2 incubator. Vitrification was performed in two steps: an equilibration (EQ) and a vitrification step (VS). Equilibration solution was composed of M199/Hanks/HEPES supplemented with 20% fetal calf serum (FCS)+7.5% ethylene glycol+7.5% DMSO. The vitrification solution contained: M199/Hanks/HEPES supplemented with 20% FCS+15% ethylene glycol, 15% DMSO and 0.5 M sucrose. […]
# To determine the cleavage rate, zygotes were washed and placed in groups of 30 in […] droplets of synthetic oviduct fluid (composition see below under “Pharmacological agents and solutions”) supplemented with 5% FCS and cultured at 38.5° C. in 5% CO2, 5% O2, and 90% N2; cleavage rate was determined after 48 hours in culture.
# [7] = tested on: cumulus cells of bovine COCs; assay: TUNEL cell death of COCs after simulated transportation
# Experimental: COCs were fixed in neutral buffered 4% formalin solution after thawing. Fixed COCs were permeabilized with 0.1% TRITON® X-100 at room temperature (8-minute incubation). COCs were rinsed twice in a phosphate-buffered saline (PBS, see Pharmacological agents and solutions). Cell death was detected by in situ terminal deoxynucleotidyl transferase (TdT)-mediated deoxyuridine triphosphate (dUTP) nick end-labeling (TUNEL), using a commercial In Situ Cell Death Detection Kit (Roche, Vilvoorde, Belgium). COCs were incubated with the TUNEL reaction mixture containing TdT and fluorescein-dUTP for 1 hour at 37° C.; thereafter, they were rinsed three times in PBS and mounted with an antifade solution containing 4′,6-diamidino-2-phenylindole (DAPI) (Vectashield, Lab Consult) for nuclear staining. Slides were examined by epifluorescence microscopy using a Nikon TE300 inverted microscope with a ×10 objective and equipped with a Nikon DS-Ri1 cooled color CCD camera (Nikon Belux, Brussels, Belgium).
# […] This was performed with or without Gap27 peptide (200 μM) present in the transportation phase medium. Afterward, cell death was evaluated via TUNEL assays as described before.
# Testing was performed as to whether Gap27 could improve COC viability upon inclusion in the media during a simulated transportation phase (5 hours total duration, see Materials and Methods) applied after the vitrification/thawing procedure. In these experiments, vitrification/thawing were done under control conditions and Gap27 was only present in the transportation medium.
# [8] = tested on: ECs and SMCs of femoral arteries; assay: TUNEL apoptosis assay on cryopreserved/thawed human femoral arteries; settings: femoral artery; Gap27 during cryopreservation/thawing only
# [9] = tested on: ECs and SMCs of saphenous veins; assay: TUNEL apoptosis assay on cryopreserved/thawed human saphenous veins; settings: saphenous vein; Gap27 during cryopreservation/thawing only
# [10] = cumulus cells, Gap27 during vitrification/thawing
# [11] = simulated transportation at 0° C., intact COCs
# [12] = simulated transportation at 37° C., cumulus reduced to 1-5 cell layers
# [13] = simulated transportation at 37° C., intact cumulus cloud
compound,measurement,setting,value
"CN[C@@H]1C[C@H]2O[C@@](C)([C@@H]1OC)n1c3ccccc3c3c4c(c5c6ccccc6n2c5c31)C(=O)NC4 [staurosporine, Staurosporine]",TUNEL positivity (in words),[1],massive TUNEL positivity
Gap27 with a scrambled peptide sequence: scrambled Gap27 control peptide TFEPIRISITK [reference compound],effect on number of TUNEL-positive cells (in words),[2]; ECs and SMCs,no significant effects
same,effect on number of TUNEL-positive cells (in words),[3]; ECs and SMCs,no significant effects
"Gap27: connexin mimetic peptide, connexin channel inhibitor, SRPTEKTIFII (SEQ ID NO:2) (listed as Homo sapiens)",Protection relative to total number of cells (%),[2]; EC,11 ± 4 (n = 11) %
same,Protection relative to total number of dead cells (%),[2]; EC,32 ± 8 (n = 11) %
same,Protection relative to total number of cells (%),[2]; SMC,6 ± 3 (n = 11) %
same,Protection relative to total number of dead cells (%),[2]; SMC,73 ± 7 (n = 11) %
same,effect on number of TUNEL-positive cells (in words),[2]; ECs and SMCs,visibly reduced; also recorded: significantly reduced
same,reduction of TUNEL-positive cell death counts (fraction),[2]; intimal layer (ECs),more than ⅓
same,reduction of TUNEL-positive cell death counts (fraction),[2]; medial layer (SMCs),more than ⅔
same,effect on cell death (in words),"[2]; femoral artery, ECs and SMCs, Gap27 during DMSO washout only",slightly (but non-significantly) reduced
same,Protection relative to total number of cells (%),[3]; EC,12 ± 4 (n = 13) %
same,Protection relative to total number of dead cells (%),[3]; EC,51 ± 8 (n = 13) %
same,Protection relative to total number of cells (%),[3]; SMC,6 ± 2 (n = 13) %
same,Protection relative to total number of dead cells (%),[3]; SMC,71 ± 6 (n = 13) %
same,effect on cell death (in words),"[3]; saphenous vein, ECs and SMCs, Gap27 during DMSO washout only",slightly (but non-significantly) reduced
same,effect on number of TUNEL-positive cells (in words),[3]; ECs and SMCs,significantly reduced
same,reduction of TUNEL-positive cell death counts (fraction),[3]; ECs,½
same,reduction of TUNEL-positive cell death counts (fraction),[3]; SMCs,more than ½
same,cell death (TUNEL assay) of cumulus cells,[4]; Gap27 200 μM during vitrification/thawing,1.68%
same,cell death of the oocytes (in words),"[4]; after vitrification/thawing, whatever the treatment",No cell death of the oocytes
same,cell mass rescued (effect size relative to the total number of cells),[4]; [10],~2.4%
same,reduction relative to the total number of dead cells in control,[4]; [10],~59%
same,fertilization rate,bovine oocytes [5],41.2%
same,cleavage rate,bovine oocytes [6],28%
same,cell death of cumulus cells,"[7]; simulated transportation 5 hours at 37° C., intact cumulus cloud, Gap27 200 μM in transportation medium",13.8%
same,cell death of cumulus cells,[7]; [11],2.82%
same,reduction of the dead cell mass,[7]; [11],~53%
same,rescue effect of the total cell mass,[7]; [11],~3.1%
same,cell death of cumulus cells,"[7]; simulated transportation at 37° C., cumulus cell layer reduced to 1-5 cell layers",7.54%
same,reduction of the dead cell mass,[7]; [12],~54%
same,rescue effect of the total cell mass,[7]; [12],~8.7%
same,reduction of the mass of dead cells,[7]; [13],~32%
same,rescue effect relative to the total mass of cells,[7]; [13],~6.5%
same,effect on cell death (in words),[8],larger and statistically significant protective effects
same,effect on cell death (in words),[9],larger and statistically significant protective effects
